Test results published in patent US20030207812A1, “Cd45 inhibitors” (priority 2002, published 2003).
Like-named read-outs stand apart in the source and are kept apart here. Where a SMILES comes first, the peptide text is derived from it. The star is where a group is joined. 3Phenanthroyl(9,10-dioxo) = O=C1C(=O)c2ccc(C(=O)*)cc2-c2ccccc21; X1 = O=C1C(=O)c2cc(N*)ccc2-c2ccccc21

Assays:
[1] = Cytotoxicity assay (Calcein-AM uptake); conditions: human, PHA-expanded T-cell lymphoblasts from PBMC
CD45 [2] = target: T1, CD45 (Homo sapiens, UniProt P08575); assay: Phosphatase assay using lck 10-mer as substrate; format: biochemical; conditions: CD45 phosphatase, lck carboxy-terminal peptide TEGQpYQPQP substrate, pH 7.2; read-out: Ick IC50
T1 construct: incubating the cytosolic portion of CD45 with the compounds and p-nitrophenyl phosphate (pNPP); purchased BIOMOL (Plymouth Meeting, Pa.)
T1 sequence (P08575 599-1306 limits assumed): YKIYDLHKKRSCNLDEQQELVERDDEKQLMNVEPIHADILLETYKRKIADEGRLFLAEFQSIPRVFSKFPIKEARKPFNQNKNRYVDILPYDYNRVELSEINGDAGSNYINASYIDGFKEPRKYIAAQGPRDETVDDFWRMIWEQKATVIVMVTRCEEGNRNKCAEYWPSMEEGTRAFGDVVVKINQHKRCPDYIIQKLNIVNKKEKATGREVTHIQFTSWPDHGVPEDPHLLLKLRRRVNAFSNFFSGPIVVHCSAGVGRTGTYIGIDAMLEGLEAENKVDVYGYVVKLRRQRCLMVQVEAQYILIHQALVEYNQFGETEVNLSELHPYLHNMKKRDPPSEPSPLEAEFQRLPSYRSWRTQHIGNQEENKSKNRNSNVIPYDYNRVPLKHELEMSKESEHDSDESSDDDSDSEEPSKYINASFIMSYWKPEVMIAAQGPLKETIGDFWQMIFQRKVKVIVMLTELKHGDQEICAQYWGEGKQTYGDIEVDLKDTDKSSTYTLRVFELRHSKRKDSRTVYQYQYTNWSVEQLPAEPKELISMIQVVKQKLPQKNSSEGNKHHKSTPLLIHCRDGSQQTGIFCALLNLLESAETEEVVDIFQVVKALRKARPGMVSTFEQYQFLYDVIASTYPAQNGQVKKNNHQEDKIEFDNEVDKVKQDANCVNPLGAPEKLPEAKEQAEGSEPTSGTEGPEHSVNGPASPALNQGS
Method: Phosphatase assay using lck 10-mer as substrate:
Phosphatase activity was assayed in 96 well plates in a buffer containing final concentrations of 25 mM HEPES at pH 7.2, 5 mM DTT and 10 μg/mL BSA using the lck carboxy-terminal peptide TEGQpYQPQP as the substrate (Cho, H., Krishnaraj, R., Itoh, M., Kitas, E., Bannwarth, W., Saito, H., Walsh, C. T. 1993. Substrate specificities of catalytic fragments of protein tyrosine phosphatases (HPTPb, LAR, and CD45) toward the phosphotyrosylpeptide substrates and thiophosphotyrosylated peptides as inhibitors. Protein Science 2:977-984). Compounds were tested in a range from 30 to 0.01 μM in a final concentration of 5% DMSO. Enzyme was incubated with substrate with or without compound, at room temperature for 1.5 h. At the end of the incubation period, BIOMOL “Green Reagent” (BIOMOL, Plymouth Meeting, Pa.) was added to each well, the plates incubated at room temperature for 30 min and absorbance read at 620 nm.

T cells (PBMC) = assay: cells; format: cell-based, human; conditions: read-out: T cell prolif. IC50
Method: Cell isolation and T cell proliferation assay:
Whole blood was obtained from healthy human blood donors. Peripheral blood mononuclear cells (“PBMC”) were isolated using Lymphoprep density-gradient centrifugation (Nycomed Amersham, Oslo, Norway), washed, counted and resuspended at 2×10^6 cells/mL in RPMI 1640 medium containing glutamine, 0.1 mg/mL gentamycin and 10% heat inactivated human serum. PBMC were transferred to 96-well plates (2×10^5 cells/well) containing compound or vehicle control, with the final concentration of DMSO not to exceed 0.3%, and incubated for 1 hour before addition of the activating anti-CD3 antibody, OKT3 (30ng/mL). After 24 hours in culture, the cells were pulsed with [^3H]thymidine (1 μCi/well) overnight and harvested the next day onto 96-well Packard GF/C filter plates using a Packard Cell Harvester (Packard Instruments, Meriden, Conn.). The filter plate was dried, the bottom of the plate sealed, 25 μL of Microscint 20 scintillation fluid added to each well, the top of the plate sealed with TopSeal-A, and the plate counted on a Packard TopCount. The data from the TopCount is transferred into Excel 5 (Microsoft, Redmond, Wash.) and formatted for EC50 determination using Prism software (GraphPad Software, San Diego, Calif.).

CD45 [3] = target: T1, CD45; assay: Phosphatase assay using pNPP as substrate; format: biochemical
Method: Phosphatase assay using pNPP as substrate:
CD45 enzyme was obtained from BIOMOL (Plymouth Meeting, Pa.). Phosphatase activity was assayed in a buffer containing final concentrations of 25 mM imidazole at pH 7.0, 50 mM NaCl, 2.5 mM ethylenediaminetetraacetic acid (“EDTA”), 5 mM dithiothreitol (“DTT”) and 10 μg/mL bovine serum albumin (“BSA”) using pNPP as a substrate.

[4] = human PBMC, OKT3 30 ng/mL, [3H]thymidine
[5] = CD45 phosphatase, pNPP substrate, pH 7.0, read-out: pNPP IC50

Structure (SMILES)	IC50 (CD45 [2])	IC50 (CD45 [3]; [5])	CC50 [1]	IC50 (T cells (PBMC); [4])	IC50 (CD45 [3])	IC50 (CD45 [3]; pH 7, read-out: pNPP IC50)	IC50 (T cells (PBMC); Homo sapiens)
O=C1C(=O)c2ccc(NC(=O)c3ccccc3C(F)(F)F)cc2-c2ccccc21 [Example 13, N-(9,10-Dioxo-9,10-dihydro-phenanthren-3-yl)-2-trifluoromethyl-benzamide]	5.8 µM	1.1 µM	14 µM	–	–	–	–
Cc1ccc(S(=O)(=O)N(c2ccc3c(c2)C(=O)C(=O)c2ccccc2-3)S(=O)(=O)c2ccc(C)cc2)cc1 [Example 14, N-(9,10-Dioxo-9,10-dihydro-phenanthren-2-yl)-4-methyl-N-[(4-methylphenyl)sulfonyl]-benzenesulfonamide]	> 30 µM	12.9 µM	5.3 µM	–	–	–	–
O=C1C(=O)c2cc(-c3cc4ccccc4o3)ccc2-c2ccccc21 [Example 16, 2-Benzofuran-2-yl-phenanthrene-9,10-dione]	–	3.7 µM	3.6 µM	–	–	–	–
COc1ccccc1-c1ccc2c(c1)C(=O)C(=O)c1ccccc1-2 [Example 20, 2-(2-Methoxy-phenyl)-phenanthrene-9,10-dione]	–	0.99 µM	8.9 µM	–	–	–	–
NC(=O)CC[C@H](NC(=O)c1ccc2c(c1)-c1ccccc1C(=O)C2=O)C(=O)N[C@@H](CCC(N)=O)C(=O)N1CCC[C@H]1C(=O)N[C@@H](CCC(=O)O)C(=O)NCC(=O)O [Example 34] ({3Phenanthroyl(9,10-dioxo)}-QQPEG-OH)	1.9 µM	–	–	–	0.9 µM	–	–
NC(=O)CC[C@H](NC(=O)[C@@H]1CCCN1C(=O)[C@H](CCC(=O)O)NC(=O)CNC(=O)c1ccc2c(c1)-c1ccccc1C(=O)C2=O)C(=O)NCC(=O)O [Example 38] ({3Phenanthroyl(9,10-dioxo)}-GEPQG-OH)	2.2 µM	–	–	–	0.7 µM	–	–
CC(=O)N[C@@H](C)C(=O)N[C@H](C(=O)N[C@@H](CCC(=O)O)C(=O)NCC(=O)N[C@@H](CCC(N)=O)C(=O)N[C@@H](CC(=O)Nc1ccc2c(c1)C(=O)C(=O)c1ccccc1-2)C(=O)O)[C@@H](C)O [Example 60] (Ac-ATEGQD(X1)-OH)	7.9 µM	2 µM	–	–	–	–	–
CC(=O)N[C@H](C(=O)N[C@@H](C)C(=O)N[C@H](C(=O)N[C@@H](CCC(=O)O)C(=O)NCC(=O)N[C@@H](CCC(N)=O)C(=O)N[C@@H](CC(=O)Nc1ccc2c(c1)C(=O)C(=O)c1ccccc1-2)C(=O)O)[C@@H](C)O)[C@@H](C)O [Example 61] (Ac-TATEGQD(X1)-OH)	–	–	–	–	–	1.8 µM	–
CC(=O)N[C@@H](Cc1ccccc1)C(=O)N[C@H](C(=O)N[C@@H](C)C(=O)N[C@H](C(=O)N[C@@H](CCC(=O)O)C(=O)NCC(=O)N[C@@H](CCC(N)=O)C(=O)N[C@@H](CC(=O)Nc1ccc2c(c1)C(=O)C(=O)c1ccccc1-2)C(=O)O)[C@@H](C)O)[C@@H](C)O [Example 62] (Ac-FTATEGQD(X1)-OH)	–	–	–	–	–	1.4 µM	–
COC(=O)CCCCCCCCC(=O)Nc1ccc2c(c1)C(=O)C(=O)c1ccccc1-2 [Example 72, 9-(9,10-Dioxo-9,10-dihydro-phenanthren-2-ylcarbamoyl)-nonanoic Acid Methyl Ester]	–	> 30 µM	–	–	–	–	–
Nc1ccc2c(c1)-c1ccccc1C(=O)C2=O [Example 88, 3-Amino-phenanthrene-9,10-dione]	10.5 µM	3.74 µM	17 µM	–	–	–	–
O=C1C(=O)c2cccc([N+](=O)[O-])c2-c2ccc([N+](=O)[O-])cc21 [Example 95, 2,5-Dinitro-phenanthrene-9,10-dione]	–	–	≥ 30 µM	–	–	–	> 30 µM
O=C(O)c1ccc2c(c1)-c1ccccc1C(=O)C2=O [Example 98, 9,10-Dioxo-9,10-dihydro-phenanthrene-3-carboxylic Acid]	2.4 µM	1 µM	–	> 30 µM	–	–	–
CC(C)(C)OC(=O)CNC(=O)c1ccc2c(c1)-c1ccccc1C(=O)C2=O [Example 102, [(9,10-dioxo-9,10-dihydro-phenanthrene-3-carbonyl)-amino]-acetic acid tert-butyl ester]	3.4 µM	–	2.5 µM	0.3 µM	–	–	–

Continued by falling IC50 (CD45 [3]; [5]), values first:

IC50 (CD45 [2])	IC50 (CD45 [3]; [5])	Structure (SMILES)	CC50 [1]	IC50 (T cells (PBMC); [4])	IC50 (CD45 [3])	IC50 (CD45 [3]; pH 7, read-out: pNPP IC50)	IC50 (T cells (PBMC); Homo sapiens)
–	0.75 µM	O=C1C(=O)c2cc(-c3ccccc3F)ccc2-c2ccccc21 [Example 18, 2-(2-Fluoro-phenyl)-phenanthrene-9,10-dione]	8.4 µM	–	–	–	–
17 µM	0.7 µM	CCCC(=O)Nc1ccc2c(c1)C(=O)C(=O)c1ccccc1-2 [Example 3, N-(9,10-Dioxo-9,10-dihydro-phenanthren-2-yl)-butyramide]	8.2 µM	1.1 µM	–	–	–
11 µM	0.6 µM	O=C(Nc1ccc2c(c1)C(=O)C(=O)c1ccccc1-2)c1ccccc1F [Example 1, N-(9,10-Dioxo-9,10-dihydro-phenanthren-2-yl)-2-fluoro-benzamide]	20 µM	3.1 µM	–	–	–
11 µM	0.5 µM	O=C(COCc1ccccc1)Nc1ccc2c(c1)C(=O)C(=O)c1ccccc1-2 [Example 2, 2-Benzyloxy-N-(9,10-dioxo-9,10-dihydro-phenanthren-2-yl)-acetamide]	14 µM	1 µM	–	–	–
3.7 µM	0.5 µM	COC(=O)CCCCCCC(=O)Nc1ccc2c(c1)C(=O)C(=O)c1ccccc1-2 [Example 71, 7-(9,10-Dioxo-9,10-dihydro-phenanthren-2-ylcarbamoyl)-heptanoic Acid Methyl Ester]	14 µM	–	–	–	–
2.9 µM	0.5 µM	COC(=O)CCC(=O)Nc1ccc2c(c1)C(=O)C(=O)c1cc(NC(=O)CCC(=O)OC)ccc1-2 [Example 82, N-[7-(3-Methoxycarbonyl-propionylamino)-9,10-dioxo-9,10-dihydro-phenanthren-2-yl]-succinamic Acid Methyl Ester]	7 µM	–	–	–	–
3.9 µM	0.5 µM	O=C1C(=O)c2cccc([N+](=O)[O-])c2-c2ccccc21 [Example 93, 4-Nitro-phenanthrene-9,10-dione]	10 µM	–	–	–	–
2.3 µM	0.4 µM	Nc1ccc2c(c1)C(=O)C(=O)c1ccccc1-2 [Example 87, 2-Amino-phenanthrene-9,10-dione]	5 µM	–	–	–	–
3.2 µM	0.4 µM	COC(=O)CCC(=O)Nc1ccc2c(c1)-c1ccccc1C(=O)C2=O [Example 90, N-(9,10-Dioxo-9,10-dihydro-phenanthren-3-yl)-succinamic Acid Methyl Ester]	18 µM	–	–	–	–
12 µM	0.3 µM	O=C1C(=O)c2cc(NC(=O)c3ccccc3[N+](=O)[O-])ccc2-c2ccccc21 [Example 5, N-(9,10-Dioxo-9,10-dihydro-phenanthren-2-yl)-2-nitro-benzamide]	8.2 µM	1 µM	–	–	–
3.8 µM	0.2 µM	CC(C)(C)C(=O)Nc1ccc2c(c1)C(=O)C(=O)c1ccccc1-2 [Example 4, N-(9,10-Dioxo-9,10-dihydro-phenanthren-2-yl)-2,2-dimethyl-propionamide]	3.5 µM	–	–	–	–
